Laboratory results taken from patent publication US7604975B2, “Glycosylated LPXTGases and uses thereof” (priority 2002, dated 2009).
Where two headings read alike, the source gives them in different places.

Legend:
[1] = tested on: LPXTGase; format: biochemical, Streptococcus pyogenes; settings: for peptide cleaved, cpm: 40 mM Tris-HCl pH 7.6, 0.1% Brij 35, control 41,530 cpm
Protocol: Enzyme Assay Method: Aliquots (10 μl) were removed from the column fractions and added to 1.5 ml Microfuge tubes. To each tube was added 30 μl of 40 mM Tris-HCl buffer, pH 7.6, containing 0.1% Brij 35, followed by a 10 μl suspension of bead-bound LPXTG-peptide substrate (0.5 to 0.8 μg, 100,000 to 200,000 cpm). The reaction mixture was incubated with vigorous shaking for 60 min at 37° C. After this time, 100 μl of water was added to each tube, and after vortex mixing, the mixture was centrifuged at 10,000 rpm for 5 min to pellet the beads. 100 μl of the supernatant was withdrawn and radioactivity was counted with a gamma counter.
The LPXTGase was exposed to a variety of salts and its activity tested for cleavage of the LPXTG (SEQ ID NO:1)-containing peptide.

[2] = tested on: LPXTGase; assay: Periodate treatment of LPXTGase, enzyme activity measured; format: biochemical, Streptococcus pyogenes; settings: 5 mM periodate, 20 mM phosphate buffer pH 6, 4 hrs at 4° C.
Protocol: Carbohydrate composition of LPXTGase. The carbohydrate composition of purified LPXTGase was determined by the Rockefeller University Analytical Service Laboratory using a Waters 490 HPLC system. […] It seemed plausible that the charged amino acids of the enzyme are internalized and the hydrophobic amino acids are located on the exterior surface in view of the fact that the enzyme is likely to be associated with the cell membrane. […] To test this, the enzyme was incubated with 5 mM of periodate in 20 mM phosphate buffer, pH 6, for 4 hrs at 4° C., and enzyme activity was measured.

[3] = tested on: trypsin; assay: Periodate treatment of trypsin, enzyme activity measured; format: biochemical; settings: identical manner (5 mM periodate, pH 6, 4 hrs at 4° C.)
[4] = 100 mM salt, one hour at 37° C.

| Structure (SMILES) | % of control (LPXTGase activity) [1] [%] | peptide cleaved, cpm ([1]; 20 mM salt, one hour at 37° C.) | peptide cleaved, cpm [1, 4] | other results |
| --- | --- | --- | --- | --- |
| [Ca+2].[Cl-].[Cl-] [Calcium chloride] | 23 | 9,706 cpm |  |  |
| O=C(O)CN(CCN(CC(=O)O)CC(=O)O)CC(=O)O [EDTA] | 5.2 | 2,147 cpm |  |  |
| Cl.NO [Hydroxylamine-HCl] | 27 |  | 11,200 cpm | effect on LPXTGase activity (general statement) [1]: inhibited |
| [Cl-].[Cl-].[Mg+2] [Magnesium chloride] | 20 | 8,615 cpm |  |  |
| [Cl-].[K+] [Potassium chloride] |  |  | 8,608 cpm | % of control (LPXTGase activity) [1, 4]: 20% |
| Cl.Cl.NCCCCN [Putrescene chloride] |  | 8,710 cpm |  | % of control (LPXTGase activity) ([1]; 20 mM salt, one hour at 37° C.): 21% |
| [Cl-].[Na+] [Sodium chloride] |  |  | 6,720 cpm | % of control (LPXTGase activity) [1, 4]: 16% |
| O=P(O)(O)O [Sodium phosphate] | 49 | 20,646 cpm |  |  |
| O=S(=O)([O-])[O-].[Na+].[Na+] [Sodium sulfate] | 57 | 23,454 cpm |  |  |
| [O-][I+3]([O-])([O-])O [periodate] |  |  |  | effect of periodate treatment on LPXTGase enzyme activity [2]: nearly completely abolished the enzyme activity; effect of periodate treatment on trypsin enzyme activity [3]: no effect |
